Series [1] concerns the target T1, human EGF-R (Homo sapiens, UniProt P00533).
T1 construct: expressed in transfected cells; host or cells: F/L-HERc cells, derived from the murine IL-3-dependent line FDC-P1 ('FDC-PI' [sic]); retroviral vector LXSN, packaging line GP+E86
Put plainly: Inhibition of EGF-dependent proliferation of F/L-HERc cells (Cell Titer 96 AQueous assay). The format is cell-based. To be noted: F/L-HERc cells (murine IL-3-dependent line expressing human EGF-R), stimulated with EGF 20 ng/ml, 48 hours at 37° C. An excerpt:
A cell line of murine origin dependent on interleukin-3 (IL-3) which was genetically modified to express functional human EGF-R was used here. The proliferation of these cells known as F/L-HERc can therefore be stimulated either by murine IL-3 or by EGF (cf. von Rüden, T. et al. in EMBO J. 7, 2749-2756 (1988) and Pierce, J. H. et al. in Science 239. 628-631 (1988)).
The starting material used for the F/L-HERc cells was the cell line FDC-PI, the production of which has been described by Dexter, T. M. et al, in J. Exp. Med. 152, 1036-1047 (1980). alternatively, however, other growth-factor-dependent cells may also be used (cf. for example Pierce, J. H. et al. in Science 239, 628-631 (1988), Shibuya, H. et al. in Cell 70, 57-67 (1992) and alexander, W. S. et al. in EMBO J. 10, 3683-3691 (1991)). For expressing the human EGF-R cDNA (cf. Ullrich, A. et al. in Nature 309, 418-425 (1984)) recombinant retroviruses were used as described by von Rüden, T. et al., EMBO J. 7, 2749-2756 (1988), except that the retroviral vector LXSN (cf. Miller, A. D. et al. in BioTechniques 1, 980-990 (1989)) was used for the expression of the EGF-R cDNA and the line GP+E86 (cf, Markowitz, D, et al. in J. Virol. 62, 1120-1124 (1988)) was used as the packaging cell.
The test was performed as follows: • F/L-HERC cells were cultivated in RPMI/1640 medium (BioWhittaker), supplemented with 10% foetal calf serum (FCS, Boehringer Mannheim). 2 mM glutamine (BioWhittaker), standard antibiotics and 20 ng/ml of human EGF (Promega), at 37° C. and 5% CO2. In order to investigate the inhibitory activity of the compounds according to the invention, 1.5×10^4 cells per well were cultivated in triplicate in 96-well plates in the above medium ([…]), the cell proliferation being stimulated with either EGF (20 ng/ml) or murine IL-3. The IL-3 used was obtained from culture supernatants of the cell line X63/0 mIL-3 (cf. Karasuyama, 4. et al. in Eur. J. Immunol. 18, 97-104 (19881). The compounds according to the invention were dissolved in 100% dimethylsulphoxide (DMSO) and added to the cultures in various dilutions, the maximum DMSO concentration being 1%. The cultures were incubated for 48 hours at 37° C.
In order to determine the inhibitory activity of the compounds according to the invention the relative cell number was measured in O.D. units using the Cell Titer 96™ AQueous Non-Radioactive Cell Proliferation Assay (Promega). The relative cell number was calculated as a percentage of the control (F/LHERc cells without inhibitor) and the concentration of active substance which inhibits the proliferation of the cells by 50% (IC50) was derived therefrom.

These results are taken from patent US6972288B1, “4-amino-quinazoline and quinoline derivatives having an inhibitory effect on signal transduction mediated by tyrosine kinases” (Boehringer Ingelheim Pharma KG, priority 1999, dated 2005).

T1 sequence (P00533 25-1210): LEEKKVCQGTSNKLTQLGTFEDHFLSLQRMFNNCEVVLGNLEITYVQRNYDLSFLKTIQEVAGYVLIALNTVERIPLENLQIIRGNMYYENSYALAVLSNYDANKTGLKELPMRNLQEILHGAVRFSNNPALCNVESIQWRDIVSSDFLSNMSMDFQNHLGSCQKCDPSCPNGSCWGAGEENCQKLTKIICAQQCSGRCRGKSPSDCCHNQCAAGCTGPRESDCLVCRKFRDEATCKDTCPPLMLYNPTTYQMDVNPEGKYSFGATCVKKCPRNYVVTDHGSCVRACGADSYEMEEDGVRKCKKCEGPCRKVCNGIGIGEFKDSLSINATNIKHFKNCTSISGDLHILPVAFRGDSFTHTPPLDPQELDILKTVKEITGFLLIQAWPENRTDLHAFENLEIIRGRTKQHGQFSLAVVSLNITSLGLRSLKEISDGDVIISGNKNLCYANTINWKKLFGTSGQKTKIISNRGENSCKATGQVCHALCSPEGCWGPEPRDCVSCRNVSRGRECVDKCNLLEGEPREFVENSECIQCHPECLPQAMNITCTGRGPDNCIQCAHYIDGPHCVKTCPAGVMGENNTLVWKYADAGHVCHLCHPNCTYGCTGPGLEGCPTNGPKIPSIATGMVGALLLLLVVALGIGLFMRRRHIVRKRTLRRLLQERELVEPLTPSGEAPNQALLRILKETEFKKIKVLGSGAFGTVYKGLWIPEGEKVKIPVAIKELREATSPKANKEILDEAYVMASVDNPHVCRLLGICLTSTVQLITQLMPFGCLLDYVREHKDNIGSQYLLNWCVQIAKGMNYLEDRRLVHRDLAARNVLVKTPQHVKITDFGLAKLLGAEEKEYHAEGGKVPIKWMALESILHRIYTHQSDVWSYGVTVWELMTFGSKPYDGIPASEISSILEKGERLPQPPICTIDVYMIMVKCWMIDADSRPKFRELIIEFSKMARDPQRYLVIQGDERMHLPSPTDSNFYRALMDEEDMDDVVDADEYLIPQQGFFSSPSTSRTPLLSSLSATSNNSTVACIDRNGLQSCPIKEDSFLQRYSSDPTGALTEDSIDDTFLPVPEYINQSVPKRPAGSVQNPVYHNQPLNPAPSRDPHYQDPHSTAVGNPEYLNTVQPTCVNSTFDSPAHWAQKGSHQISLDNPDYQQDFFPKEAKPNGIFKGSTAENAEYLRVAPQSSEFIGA

Compound `C=CC(=O)Nc1cc2c(Nc3cccc(Br)c3)ncnc2cc1OCCCN1CCN(CC(=O)OCC)CC1` [Example 1, 4-[(3-Bromophenyl)amino]-7-(3-{4-[(ethoxycarbonyl)methyl]-piperazin-1-yl)propyloxy)-6-[(vinylcarbonyl)amino]-quinazoline] returned a melting point of 80 to 85 °C. Also, the IC50 in series [1] came to 2.6 nM.
The matching figures for `CCOC(=O)CN(C)CC=CC(=O)Nc1ccc2ncnc(Nc3cccc(Br)c3)c2c1` [Example 2, 4-[(3-Bromophenyl)amino]-6-[(4-{N-[(ethoxycarbonyl)methyl]-N-methylamino}-1-oxo-2-buten-1-yl)-amino]-quinazoline]: 182 to 183 °C and 5.2 nM.
In turn, `CCOC(=O)CN(CC=CC(=O)Nc1cc2c(Nc3ccc(F)c(Cl)c3)ncnc2cc1OCC1CC1)CCOC(C)=O` [Example 11, 4-[(3-chloro-4-fluorophenyl)amino]-6-[(4-(N-[(ethoxycarbonyl)-methyl]-N-[2-(methylcarbonyloxy)ethyl]amino]-1-oxo-2-buten-1-yl)amino]-7-cyclopropylmethoxy-quinazoline] returned a melting point of 90 to 92 °C. Besides, in series [1], the IC50 stood at 74 nM.
On to `CCOC(=O)C1CN(C(C)=O)CCN1CC=CC(=O)Nc1cc2c(Nc3ccc(F)c(Cl)c3)ncnc2cc1OCC1CC1` (stereo not shown) [Example 18, 4-[(3-Chloro-4-fluoro-phenyl)amino]-6-({4-[2-(ethoxycarbonyl)-4-(methylcarbonyl)-piperazin-1-yl]-1-oxo-2-buten-1-yl}amino)-7-cyclopropylmethoxy-quinazoline], for which the melting point was in the range of 152 to 156 °C.

By IC50 is commonly meant the concentration that gives 50% inhibition. A lower IC50 goes with greater potency in that assay. As usually defined, the melting point is the temperature, or range, at which the solid turns liquid.
